What was measured:
Assay in all cases: relative viability (nuclei count vs DMSO), 5 days (fraction); higher = more cells survive
[1] = compound: C/C(=N\NC(=S)N1CCC1)/C2=CC=CC=N2 + CC1(C)CCC(c2ccc(Cl)cc2)=C(CN2CCN(c3ccc(C(=O)NS(=O)(=O)c4ccc(N[C@H](CCN5CCOCC5)CSc5ccccc5)c(S(=O)(=O)C(F)(F)F)c4)cc3)CC2)C1 [Navitoclax] (partner 0.5 µM)
Summary of the method: (§1)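 Relative viability equals treated-well nuclei counts divided by vehicle-well nuclei counts. Counts came from 4× images of lung cancer cell lines grown in 1536-well plates for 5 days after pin-tool dosing on the day after seeding. Dosing used one drug alone or a fixed anchor-drug dose plus five library-drug doses (not always all listed) in √10 steps, and values are medians of duplicate plates.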

[2] = compound: C/C(=N\NC(=S)N1CCC1)/C2=CC=CC=N2 + CC(C)C[C@H](NC(=O)[C@H](Cc1ccccc1)NC(=O)c1cnccn1)B(O)O [Bortezomib] (partner 0.002 µM)
Summary of the method: as §1

[3] = compound: C/C(=N\NC(=S)N1CCC1)/C2=CC=CC=N2 + Cc1nc(Nc2ncc(C(=O)Nc3c(C)cccc3Cl)s2)cc(N2CCN(CCO)CC2)n1 [Dasatinib] (partner 0.075 µM)
Summary of the method: as §1

[4] = compound: C/C(=N\NC(=S)N1CCC1)/C2=CC=CC=N2 + CCNC(=O)c1noc(-c2cc(C(C)C)c(O)cc2O)c1-c1ccc(CN2CCOCC2)cc1 [Luminespib] (partner 0.01 µM)
Summary of the method: as §1

Row | Cell Line | relative viability ([1]; first compound 0.05 µM) | relative viability ([1]; first compound 0.1581 µM) | relative viability ([1]; first compound 0.5 µM) | relative viability ([1]; first compound 1.581 µM) | relative viability ([1]; first compound 5 µM) | relative viability ([2]; first compound 0.05 µM) | relative viability ([2]; first compound 0.1581 µM) | relative viability ([2]; first compound 0.5 µM) | relative viability ([2]; first compound 1.581 µM) | relative viability ([2]; first compound 5 µM) | relative viability ([3]; first compound 0.05 µM) | relative viability ([3]; first compound 0.1581 µM) | relative viability ([3]; first compound 0.5 µM) | relative viability ([3]; first compound 1.581 µM) | relative viability ([3]; first compound 5 µM) | relative viability ([4]; first compound 0.05 µM) | relative viability ([4]; first compound 0.1581 µM) | relative viability ([4]; first compound 0.5 µM) | relative viability ([4]; first compound 1.581 µM) | relative viability ([4]; first compound 5 µM)
1 | HCC-15 | 0.198 | 0.392 | 0.0695 | 0.092 | 0.0784 | 0.133 | 0.0661 | 0.0658 | 0.0754 | 0.0698 | 0.0569 | 0.0708 | 0.0679 | 0.0571 | 0.0669 | 0.128 | 0.0546 | 0.119 | 0.0758 | 0.072
2 | HCC-827 | 0.639 | 1.02 | 0.308 | 0.273 | 0.241 | 0.497 | 0.497 | 0.325 | 0.274 | 0.282 | 0.292 | 0.302 | 0.21 | 0.241 | 0.283 | 0.254 | 0.468 | 0.163 | 0.124 | 0.188
3 | HOP-62 | 0.169 | 0.0748 | 0.0823 | 0.104 | 0.0618 | 0.067 | 0.0599 | 0.0594 | 0.0602 | 0.0491 | 0.0752 | 0.0748 | 0.0769 | 0.0912 | 0.0784 | 0.215 | 0.12 | 0.151 | 0.129 | 0.119
4 | LC-2-ad | 0.0933 | 0.0992 | 0.0713 | 0.0966 | 0.121 | 0.115 | 0.106 | 0.114 | 0.104 | 0.0851 | 0.191 | 0.187 | 0.143 | 0.165 | 0.166 | 0.269 | 0.273 | 0.252 | 0.219 | 0.247
5 | LCLC-97TM1 | 0.124 | 0.421 | 0.0929 | 0.115 | 0.104 | 0.0597 | 0.0472 | 0.0458 | 0.0548 | 0.0452 | 0.163 | 0.161 | 0.143 | 0.0911 | 0.13 | 0.415 | 0.623 | 0.109 | 0.136 | 0.151
6 | LOU-NH91 | 0.275 | 0.308 | 0.253 | 0.225 | 0.278 | 0.435 | 0.443 | 0.501 | 0.37 | 0.387 | 0.35 | 0.37 | 0.27 | 0.367 | 0.382 | 0.257 | 0.293 | 0.274 | 0.185 | 0.264
7 | LU99A | 0.196 | 0.181 | 0.139 | 0.154 | 0.187 | 0.135 | 0.108 | 0.165 | 0.124 | 0.147 | 0.131 | 0.16 | 0.114 | 0.106 | 0.155 | 0.15 | 0.116 | 0.152 | 0.164 | 0.148
8 | LXF-289 | 0.431 | 0.361 | 0.248 | 0.193 | 0.108 | 0.314 | 0.216 | 0.255 | 0.203 | 0.121 | 0.0597 | 0.064 | 0.0627 | 0.0541 | 0.0561 | 0.169 | 0.132 | 0.177 | 0.153 | 0.126

Reference: the supplement of paper PMC10307832
